Test results: patent publication US9939427B2, “Method for evaluating the scent performance of perfumes or perfume mixtures” (Symrise AG, priority 2013, dated 2018)
“Also recorded” adds a separate entry of the source.

What was measured:
OR4C3 = molecular target: T1, OR4C3 (Homo sapiens, UniProt Q8NH37); assay: Ca-imaging of OR4C3-transfected HEK293 cells; assay type: cell-based; set-up: key: ▪: 18 olfactory receptors responded to 32 odorants in related with specific anosmia; conditions: individual odorant 200 μM, significant response p<0.05
T1 construct: specific primers, which amplify the complete open reading frame; expressed in transfected cells; host or cells: HEK293
T1 sequence (Q8NH37 whole entry): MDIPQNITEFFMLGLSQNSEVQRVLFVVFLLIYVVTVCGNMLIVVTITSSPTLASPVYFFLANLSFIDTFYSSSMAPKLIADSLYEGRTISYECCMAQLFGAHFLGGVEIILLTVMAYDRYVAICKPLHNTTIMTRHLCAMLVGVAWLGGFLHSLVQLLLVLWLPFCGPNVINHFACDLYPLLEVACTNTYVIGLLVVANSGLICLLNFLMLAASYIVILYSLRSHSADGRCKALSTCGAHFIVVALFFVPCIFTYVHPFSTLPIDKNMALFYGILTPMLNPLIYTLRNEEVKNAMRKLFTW
Procedure: (§1) HEK293 cells were cultivated in Petri dishes (Ø35 mm) as previously described (Benbernou et al. 2007). We grow up HEK293 cells in culture medium containing standard DMEM with 10% heat-inactivated fetal bovine serum, 2 mM L-glutamine, 100 units/ml penicillin, and 100 units/ml streptomycin in a humidified atmosphere (37° C., 5% CO2). After 2-3 days, the transfection process was carried out, whereby the cell culture was 70-80% confluent. The calciumphosphate method was applied to transfect DNA plasmid transiently in HEK293 cells in case of Ca-imaging method.
(§2) Calcium cations and phosphate anions created crystal precipitations coupled with DNA which could invade into the cells through endocytosis. […]
(§3) Calcium imaging of the transfected HEK293 cells was done by using chambers determinate an inverted microscope (Olympus; IX70) using a 10× objective (CPIanFL N Olympus). Fluorescence emission was determined every 4 s by using a CCD camera (Charge Coupled Device, C9100 Hamamatsu). […] Odorants were manually monitored to drop each 4-5 s to transfected cells. […]
(§4) In experiments, Fura-2 Acetoxymethylester (Fura-2/AM) was applied. […] According to this feature, the analysis of 340/380 nm excitation ratio for Fura-2 allows to quantify intracellular calcium levels. […]

OR5L1 = molecular target: T2, OR5L1 (Homo sapiens, UniProt Q8NGL2); assay: Ca-imaging of OR5L1-transfected HEK293 cells; assay type: cell-based; set-up: key: ▪: 18 olfactory receptors responded to 32 odorants in related with specific anosmia; conditions: individual odorant 200 μM, significant response p<0.05
T2 construct: specific primers, which amplify the complete open reading frame; expressed in transfected cells; host or cells: HEK293
T2 sequence (Q8NGL2 whole entry): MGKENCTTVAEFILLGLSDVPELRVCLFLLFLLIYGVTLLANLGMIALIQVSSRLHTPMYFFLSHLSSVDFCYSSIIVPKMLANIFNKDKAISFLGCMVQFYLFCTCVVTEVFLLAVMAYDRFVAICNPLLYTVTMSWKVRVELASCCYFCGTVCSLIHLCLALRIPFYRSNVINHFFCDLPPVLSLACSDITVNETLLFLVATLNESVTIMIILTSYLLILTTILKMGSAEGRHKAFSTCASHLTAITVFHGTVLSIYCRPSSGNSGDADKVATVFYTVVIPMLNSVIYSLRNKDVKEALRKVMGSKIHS
Procedure: as §1, §2, §3, §4

OR5I1 = molecular target: T3, OR5I1 (Homo sapiens, UniProt Q13606); assay: Ca-imaging of OR5I1-transfected HEK293 cells; assay type: cell-based; set-up: key to OR5I1 responded to odorant: ▪: 18 olfactory receptors responded to 32 odorants in related with specific anosmia
T3 construct: specific primers, which amplify the complete open reading frame; expressed in transfected cells; host or cells: HEK293
T3 sequence (Q13606 whole entry): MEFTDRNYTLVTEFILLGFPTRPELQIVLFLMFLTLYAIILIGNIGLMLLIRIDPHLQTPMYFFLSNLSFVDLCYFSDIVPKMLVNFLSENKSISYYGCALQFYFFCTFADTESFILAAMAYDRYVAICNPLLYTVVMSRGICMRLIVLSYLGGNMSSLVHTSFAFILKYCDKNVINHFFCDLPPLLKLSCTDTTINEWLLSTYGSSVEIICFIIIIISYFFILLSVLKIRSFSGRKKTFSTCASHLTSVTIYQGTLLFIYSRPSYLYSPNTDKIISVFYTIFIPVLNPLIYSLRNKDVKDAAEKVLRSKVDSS
Procedure: as §1, §2, §3, §4

OR1B1 = molecular target: T4, OR1B1 (Homo sapiens, UniProt Q8NGR6); assay: Ca-imaging of OR1B1-transfected HEK293 cells; assay type: cell-based; set-up: key to OR1B1 responded to odorant: ▪: 18 olfactory receptors responded to 32 odorants in related with specific anosmia; conditions: for Number of cell responses, Experiment (OR1B1): odorant 200 μM, approximately 2000 transfected cells in three times of measuring (Table 4, FIG. 5)
T4 construct: specific primers, which amplify the complete open reading frame; expressed in transfected cells; host or cells: HEK293
T4 sequence (Q8NGR6 1-317): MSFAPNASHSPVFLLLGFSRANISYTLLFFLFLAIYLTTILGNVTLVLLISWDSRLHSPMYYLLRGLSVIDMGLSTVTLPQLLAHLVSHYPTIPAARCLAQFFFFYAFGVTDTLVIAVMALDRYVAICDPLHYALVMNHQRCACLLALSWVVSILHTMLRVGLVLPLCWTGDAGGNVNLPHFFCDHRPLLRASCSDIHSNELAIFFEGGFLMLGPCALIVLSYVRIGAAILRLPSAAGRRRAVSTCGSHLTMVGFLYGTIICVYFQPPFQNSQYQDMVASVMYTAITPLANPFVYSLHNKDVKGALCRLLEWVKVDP
Procedure: as §1
(§5) Calcium cations and phosphate anions created crystal precipitations coupled with DNA which could invade into the cells through endocytosis. Cells were transiently transfected with plasmid DNA which consists of pCI expression vector and PCR-amplified full-length cDNA of olfactory receptors candidates, and also Gα15, RTP1, Myr-Ric8A, HSC70, and m-Cherry as cofactors. The precipitation could be created after 15-20 min, with dropping the transfection solution on HEK293 cells. Before measuring by Ca-imaging cells were incubated 48-60 hours at 370 C, 5% CO2. Cationic liposome-mediated transfection method was applied to transfect DNA plasmid transiently in HANA3A cells in case of CRE-Luciferase and CRE-SEAP assays.
(§6) Calcium imaging of the transfected HEK293 cells was done by using chambers determinate an inverted microscope (Olympus; IX70) using a 10× objective (CPIanFL N Olympus). Fluorescence emission was determined every 4 s by using a CCD camera (Charge Coupled Device, C9100 Hamamatsu). The capillary tube which was responsible to supply odorants was generated closely above the cells. The columns filled with odorants, DMSO and ATP. Odorants were manually monitored to drop each 4-5 s to transfected cells. Solutions with drop wise form spread on HEK293 cells in 35 mm dishes.
(§7) In experiments, Fura-2 Acetoxymethylester (Fura-2/AM) was applied. The non-polar Fura2/AM is fluorescent but not yet calcium-sensitive. Once diffuses into cell plasma, Fura-2/AM is hydrolyzed to Fura-2 which is calcium-sensitive and functions as Ca2+ chelator. Regardless of the presence of calcium, Fura-2 emits at the wavelength of 510 nm. Once Fura-2 binds to free intracellular Ca2+ in cell plasma, its ratio of excitation at wavelengths of 340 nm and 380 nm is changed and correlated to the amount of intracellular Ca2+. According to this feature, the analysis of 340/380 nm excitation ratio for Fura-2 allows to quantify intracellular calcium levels.
(§8) In preparation for Ca-imaging measurements, transfected HEK293 cells were added 3 it Fura2/AM (3 μM) and incubated 30-45 min at 370 C, 5% CO2. After this step, experiments were carried out in a dark condition (Fura-2 is light-sensitive). After the incubation, medium of cell culture was replaced with 2 ml Ringer's solution.
(§9) Odorants were freshly prepared with DMSO as 1 M stocks solutions. Six mixtures (200 μM each chemical) were applied to cells sequentially (20 s each mixture/30 s Ringer). Those ORs tested with single odorants that had generated a response to odorant mixture group previously. Odorants were prepared in 100-200 μM concentration.
(§10) Ringer's solution was used for washing cells between measuring by two different odorants. Positive response was determined by the timing of the response, the strength of the response (more than twofold higher than the noise amplitude of the baseline), and the shape of the response curve (sharp rise in curve with gradual recovery). The typical shape of response curves was established by observing responses to repeated stimulation with 200 μM of odorants. After testing with single odorants at 100 μM, stimulating odorants were often retested at 200 μM concentrations. To confirm the result of every receptor that produced a significant response curves, the experiment was repeated for twelve times. Finally, cells were exposed to ATP (0.25 mM) which could activate P2Y receptor channel and induce Ca2+ influx into cells. […]

[1] = system: HEK293 cells transfected with all cofactors and pCI plasmids without ORs; assay: Ca-imaging of control HEK293 cells without OR; assay type: cell-based
Procedure: as §1, §5, §6, §7, §8, §9, §10

OR1B1-574 = molecular target: T5, OR1B1-574 (Homo sapiens, UniProt Q8NGR6); assay: Ca-imaging of mutant OR1B1-574 in HEK293 cells; assay type: cell-based; conditions: 200 μM, applied for 20 seconds
T5 construct: Rho-tag (N); expressed in transfected cells; host or cells: HEK293
Description: (§11) Mutations were introduced for OR1B1 and OR10Q1 by Overlap Extension PCR (OEP). […] Flanking primers in combination with internal primers provided mutated gene segments, Full length primers included EcoRI and NotI restriction sites for further cloning into pCI expression vector. Site-directed mutations were selected for base of minor allele frequency of nucleotide.
(§12) In mutagenesis by overlap extension PCR method, initial PCRs provided mutated gene segments, with overlapping complementary 3′ ends carrying desired point mutation that were then mixed and used as template for a subsequent PCR to generate the full-length product. Overlapping strands of these intermediate products hybridize at this 3′ region in a subsequent PCR and are extended to generate the full-length product amplified by flanking primers; this shown in FIG. 2. […]
as §3, §4

OR1B1-789 = molecular target: T6, OR1B1-789 (Homo sapiens, UniProt Q8NGR6, C262W); assay: Ca-imaging of mutant OR1B1-789 in HEK293 cells; assay type: cell-based; conditions: 200 μM, applied for 20 seconds, listed as androstenone
T6 construct: Full length primers included EcoRI and NotI restriction sites for further cloning into pCI expression vector; Rho-tag (N); expressed in transfected cells; host or cells: HEK293
T6 sequence (Q8NGR6 whole entry C262W): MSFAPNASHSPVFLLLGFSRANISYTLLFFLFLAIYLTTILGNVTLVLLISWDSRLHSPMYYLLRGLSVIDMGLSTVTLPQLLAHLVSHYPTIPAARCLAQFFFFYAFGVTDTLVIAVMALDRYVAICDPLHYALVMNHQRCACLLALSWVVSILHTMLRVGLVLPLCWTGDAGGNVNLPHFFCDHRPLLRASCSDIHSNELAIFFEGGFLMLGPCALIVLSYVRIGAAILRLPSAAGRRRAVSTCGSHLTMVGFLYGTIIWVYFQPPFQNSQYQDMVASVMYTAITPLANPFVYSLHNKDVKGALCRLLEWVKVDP
Description: as §11, §12, §3, §4

OR1B1-688 = assay: Ca-imaging of mutant OR1B1-688 in HEK293 cells; assay type: cell-based, human; conditions: 200 μM, applied for 20 seconds, listed as androstenone
Description: as §11, §12, §3, §4

OR4C16 = molecular target: T7, OR4C16 (Homo sapiens, UniProt Q8NGL9); assay: Ca-imaging of OR4C16-transfected HEK293 cells; assay type: cell-based; set-up: key to OR4C16 responded to odorant: ▪: 18 olfactory receptors responded to 32 odorants in related with specific anosmia
T7 construct: specific primers, which amplify the complete open reading frame; expressed in transfected cells; host or cells: HEK293
T7 sequence (Q8NGL9 whole entry): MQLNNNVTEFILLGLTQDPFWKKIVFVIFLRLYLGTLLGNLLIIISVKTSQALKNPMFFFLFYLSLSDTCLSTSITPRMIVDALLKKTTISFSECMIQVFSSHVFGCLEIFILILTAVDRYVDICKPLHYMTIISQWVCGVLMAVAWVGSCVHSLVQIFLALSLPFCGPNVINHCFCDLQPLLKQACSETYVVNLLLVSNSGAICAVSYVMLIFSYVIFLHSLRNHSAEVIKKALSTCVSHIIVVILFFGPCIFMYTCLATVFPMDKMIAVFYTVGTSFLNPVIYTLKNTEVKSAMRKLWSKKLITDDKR
Procedure: as §1, §2, §3, §4

OR10C1 = molecular target: T8, OR10C1 (Homo sapiens, UniProt Q96KK4); assay: Ca-imaging of OR10C1-transfected HEK293 cells; assay type: cell-based; set-up: key: ▪: 18 olfactory receptors responded to 32 odorants in related with specific anosmia; conditions: individual odorant 200 μM, significant response p<0.05
T8 construct: specific primers, which amplify the complete open reading frame; expressed in transfected cells; host or cells: HEK293
T8 sequence (Q96KK4 whole entry): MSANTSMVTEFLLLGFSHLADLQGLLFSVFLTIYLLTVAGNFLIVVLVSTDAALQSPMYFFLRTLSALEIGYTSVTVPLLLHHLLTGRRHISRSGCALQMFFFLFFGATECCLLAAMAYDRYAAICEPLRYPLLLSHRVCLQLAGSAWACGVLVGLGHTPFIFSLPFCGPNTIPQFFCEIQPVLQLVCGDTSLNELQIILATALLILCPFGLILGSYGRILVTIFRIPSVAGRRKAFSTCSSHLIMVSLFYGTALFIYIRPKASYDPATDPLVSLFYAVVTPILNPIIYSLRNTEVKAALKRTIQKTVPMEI
Procedure: as §1, §2, §3, §4

[2] = HEK293 cells, individual odorant 200 μM, significant response p<0.05

C/C=C/C(=O)C1=C(C)CCCC1(C)C [B-Damascone, β-Damascone]
OR4C3 responded to odorant (OR4C3): ▪
OR5L1 responded to odorant (OR5L1): ▪

CCCCCCCC=O [Octanal]
OR5I1 responded to odorant (OR5I1; [2]): ▪
Response of OR5I1 to odorant, in words (OR5I1; single odorants 200 μM): responded

C[C@]12CCC(=O)C[C@@H]1CC[C@@H]1[C@@H]2CC[C@]2(C)C=CC[C@@H]12 [Androstenon, 5α-Androst-16-en-3-one]
Number of cell responses of OR1B1 (FIG. 8) (OR1B1; 200 μM, approximately 2000 cells in three times of measuring, steroid comparison): 13
OR1B1 responded to odorant (OR1B1; Ca-imaging, HEK293 cells, individual odorant 200 μM, significant response p<0.05): ▪
Response of OR1B1 to odorant, in words (OR1B1; Ca-imaging, single odorants 200 μM, listed as androstenone): significantly (P<0.05) activated; also recorded: responded
Number of cell responses, Experiment (OR1B1) (OR1B1; listed as Andorestenone): 20
Number of cell responses, Experiment (OR1B1) (OR1B1; listed as androstenone): 35
Number of cell responses in controls (FIG. 8, 11, 12) ([1]; 200 μM, steroid comparison): 3
Number of cell responses, Control ([1]; odorant 200 μM, three times of measuring (Table 4, FIG. 5)): 0
Response of OR1B1-574 in comparison to OR1B1 WT (OR1B1-574): not able to reproduce responses
Response of OR1B1-789 in comparison to OR1B1 WT (OR1B1-789): no significantly different responses; also recorded: did not show any significant difference
Response of OR1B1-688 in comparison to OR1B1 WT (OR1B1-688): no significantly different responses; also recorded: did not show any significant difference

CCCCCC1CCC(=O)O1 (centres unmarked) [Aldehyde C18]
OR4C16 responded to odorant (OR4C16; [2]): ▪
Response of OR4C16 to odorant, in words (OR4C16; single odorants 200 μM): responded
OR5L1 responded to odorant (OR5L1): ▪

CCCCCC1C(=O)CCC1CC(=O)OC (centres unmarked) [Hedione, Hedion]
OR10C1 responded to odorant (OR10C1): ▪

CCC(C)=O [Odorant 2-butanone, 2-Butanone]
OR10C1 responded to odorant (OR10C1): ▪

CC(C)CCC(=O)O [Isocaproic acid]
OR4C3 responded to odorant (OR4C3): ▪
